# The SangsterLogP compilation
# Test: method code SF-AS, from DOI: 10.1139/v66-154
row,SMILES,logP
1,O=[N+]([O-])/C=C/c1ccccc1Cl,2.85
2,CC1=C(O)c2ccccc2C(=O)C1=O,1.2
3,O=C1C=C(Nc2ccccc2)C(=O)c2ccccc21,2.84
4,O=[N+]([O-])/C=C/c1ccc(Cl)cc1,2.44
5,COC1=CC(=O)c2ccccc2C1=O,1.35
6,CCCCSC1=CC(=O)c2ccccc2C1=O,3.29
7,COC1=C(C)C(=O)c2ccccc2C1=O,2.14
8,Cc1cc2c(cc1C)C(=O)C=CC2=O,2.49
9,C/C(=C\c1ccccc1)[N+](=O)[O-],2.52
10,CC(=O)NC1=CC(=O)c2ccccc2C1=O,1.29
11,CN(C)c1ccc(/C=C/[N+](=O)[O-])cc1,2.67
12,CCCCNC1=CC(=O)c2ccccc2C1=O,3.11
13,O=C1C(Nc2ccccc2)=C(S(=O)(=O)c2ccccc2)C(=O)c2ccccc21,3.38
14,COc1cccc(/C=C/[N+](=O)[O-])c1,2.3
15,O=[N+]([O-])/C=C/c1cccc(Cl)c1,2.57
16,CC(=O)NC1=C(Nc2ccccc2)C(=O)c2ccccc2C1=O,1.73

row,SMILES,logP
1,O=C1C=C(Cl)C(=O)c2ccccc21,2.15
2,O=[N+]([O-])/C=C/c1cccc([N+](=O)[O-])c1,1.82
3,O=[N+]([O-])C=Cc1cccc(O)c1,2.07
4,COc1cc(C=C[N+](=O)[O-])ccc1O,1.88
5,O=C1C=C(S(=O)(=O)c2ccccc2)C(=O)c2ccccc21,2.14
6,O=C1C=CC(=O)c2ccccc21,1.71
7,O=[N+]([O-])/C=C/c1ccccc1[N+](=O)[O-],1.8
8,CCCCSC1=C(NC(C)=O)C(=O)c2ccccc2C1=O,2.07
9,O=C1C=C(c2ccccc2)C(=O)c2ccccc21,4.4
10,CCCCNC1=C(Cl)C(=O)c2ccccc2C1=O,4.26
11,O=[N+]([O-])/C=C/c1ccc(O)cc1,2.12
12,O=C1C(Cl)=C(Nc2ccccc2)C(=O)c2ccccc21,4.22
13,O=[N+]([O-])C=Cc1ccccc1,2.11
14,O=[N+]([O-])C=Cc1cc([N+](=O)[O-])ccc1Cl,2.23
15,O=[N+]([O-])/C=C/c1ccc([N+](=O)[O-])cc1,1.89
16,Cc1ccc2c(c1)C(=O)C=CC2=O,2.1
